Laboratory results taken from ChEMBL document CHEMBL4334509, “Garcinol and Related Polyisoprenylated Benzophenones as Topoisomerase II Inhibitors: Biochemical and Molecular Modeling Studies” (J Nat Prod, 2019).
Activity calls are given as the source filed them. The rule behind the calls is not given here.

B1: DNA topoisomerase 2-alpha (Homo sapiens), P11388 (protein)
chain: MEVSPLQPVNENMQVNKIKKNEDAKKRLSVERIYQKKTQLEHILLRPDTYIGSVELVTQQMWVYDEDVGINYREVTFVPGLYKIFDEILVNAADNKQRDPKMSCIRVTIDPENNLISIWNNGKGIPVVEHKVEKMYVPALIFGQLLTSSNYDDDEKKVTGGRNGYGAKLCNIFSTKFTVETASREYKKMFKQTWMDNMGRAGEMELKPFNGEDYTCITFQPDLSKFKMQSLDKDIVALMVRRAYDIAGSTKDVKVFLNGNKLPVKGFRSYVDMYLKDKLDETGNSLKVIHEQVNHRWEVCLTMSEKGFQQISFVNSIATSKGGRHVDYVADQIVTKLVDVVKKKNKGGVAVKAHQVKNHMWIFVNALIENPTFDSQTKENMTLQPKSFGSTCQLSEKFIKAAIGCGIVESILNWVKFKAQVQLNKKCSAVKHNRIKGIPKLDDANDAGGRNSTECTLILTEGDSAKTLAVSGLGVVGRDKYGVFPLRGKILNVREASHKQIMENAEINNIIKIVGLQYKKNYEDEDSLKTLRYGKIMIMTDQDQDGSHIKGLLINFIHHNWPSLLRHRFLEEFITPIVKVSKNKQEMAFYSLPEFEEWKSSTPNHKKWKVKYYKGLGTSTSKEAKEYFADMKRHRIQFKYSGPEDDAAISLAFSKKQIDDRKEWLTNFMEDRRQRKLLGLPEDYLYGQTTTYLTYNDFINKELILFSNSDNERSIPSMVDGLKPGQRKVLFTCFKRNDKREVKVAQLAGSVAEMSSYHHGEMSLMMTIINLAQNFVGSNNLNLLQPIGQFGTRLHGGKDSASPRYIFTMLSSLARLLFPPKDDHTLKFLYDDNQRVEPEWYIPIIPMVLINGAEGIGTGWSCKIPNFDVREIVNNIRRLMDGEEPLPMLPSYKNFKGTIEELAPNQYVISGEVAILNSTTIEISELPVRTWTQTYKEQVLEPMLNGTEKTPPLITDYREYHTDTTVKFVVKMTEEKLAEAERVGLHKVFKLQTSLTCNSMVLFDHVGCLKKYDTVLDILRDFFELRLKYYGLRKEWLLGMLGAESAKLNNQARFILEKIDGKIIIENKPKKELIKVLIQRGYDSDPVKAWKEAQQKVPDEEENEESDNEKETEKSDSVTDSGPTFNYLLDMPLWYLTKEKKDELCRLRNEKEQELDTLKRKSPSDLWKEDLATFIEELEAVEAKEKQDEQVGLPGKGGKAKGKKTQMAEVLPSPRGQRVIPRITIEMKAEAEKKNKKKIKNENTEGSPQEDGVELEGLKQRLEKKQKREPGTKTKKQTTLAFKPIKKGKKRNPWSDSESDRSSDESNFDVPPRETEPRRAATKTKFTMDLDSDEDFSDFDEKTDDEDFVPSDASPPKTKTSPKLSNKELKPQKSVVSDLEADDVKGSVPLSSSPPATHFPDETEITNPVPKKNVTVKKTAAKSQSSTSTTGAKKRAAPKGTKRDPALNSGVSQKPDPAKTKNRRKRKPSTSDDSDSNFEKIVSKAVTSKKSKGESDDFHMDFDSAVAPRAKSVRAKKPIKYLEESDEDDLF

Key:
[1] = target: T1, DNA topoisomerase 2-alpha (Homo sapiens, UniProt P11388); test: Inhibition of human topoisomerase 2alpha-mediated relaxation of supercoiled pSG483 DNA at 12.5 to 200 uM after 30 mins by ethidium bromide staining based agarose gel electrophoresis method
[2] = target: T2, DNA topoisomerase 2-beta (Homo sapiens, UniProt Q02880); test: Inhibition of human topoisomerase 2beta-mediated DNA cleavage at 12.5 to 200 uM using supercoiled pSG483 as substrate after 30 mins by ethidium bromide staining based gel electrophoresis method
[3] = target: T1, DNA topoisomerase 2-alpha; test: (§1) Mixed-type inhibition of topoisomerase 2alpha ATPase activity (unknown origin) assessed as apparent Vmax per mg protein at 25 uM using salmon sperm DNA as substrate measured every 30 secs for 90 mins in presence of ATP by pyruvate kinase/lactate dehydrogenase enzyme coupled assay (reference value: 136.7 +/- 14.7 mM/min)
[4] = target: T1, DNA topoisomerase 2-alpha; test: Inhibition of human topoisomerase 2alpha-mediated DNA cleavage at 12.5 to 200 uM using supercoiled pSG483 as substrate after 30 mins by ethidium bromide staining based gel electrophoresis method
[5] = target: T2, DNA topoisomerase 2-beta; test: Inhibition of human topoisomerase 2beta-mediated relaxation of supercoiled pSG483 DNA at 12.5 to 200 uM after 30 mins by ethidium bromide staining based agarose gel electrophoresis method
[6] = target: T1, DNA topoisomerase 2-alpha; test: as §1, with “20” for “25”
[7] = target: T2, DNA topoisomerase 2-beta; test: Inhibition of human topoisomerase 2beta-mediated DNA cleavage assessed as formation of nicking in DNA at 200 uM using supercoiled pSG483 as substrate after 30 mins by ethidium bromide based gel electrophoresis method
[8] = target: T1, DNA topoisomerase 2-alpha; test: Poison activity at human topoisomerase 2alpha assessed as linear DNA formation at 12.5 to 200 uM after 30 mins by ethidium bromide staining based agarose gel electrophoresis method
[9] = target: T1, DNA topoisomerase 2-alpha; test: as §1, with “50” for “25”
[10] = system: DNA; test: Induction of plasmid DNA (unknown origin) intercalation at 7.81 to 500 uM after 30 mins by ethidium bromide staining based agarose gel electrophoresis method; type: nucleic-acid assay
[11] = target: T2, DNA topoisomerase 2-beta; test: Inhibition of human topoisomerase 2beta-mediated relaxation of supercoiled pSG483 DNA after 30 mins by ethidium bromide staining based agarose gel electrophoresis method
[12] = target: T1, DNA topoisomerase 2-alpha; test: Inhibition of human topoisomerase 2alpha-mediated relaxation of supercoiled pSG483 DNA after 30 mins by ethidium bromide staining based agarose gel electrophoresis method
[13] = compound: CC(C)=CCC[C@@]1(C)[C@H](CC=C(C)C)C[C@]2(CC=C(C)C)C(=O)[C@@]1(CC=C(C)C)C(=O)C(C(=O)c1ccc(O)c(O)c1)=C2O; test: (§2) Mixed-type inhibition of topoisomerase 2alpha ATPase activity (unknown origin) assessed as apparent Km at 10 uM using salmon sperm DNA as substrate measured every 30 secs for 90 mins in presence of ATP by pyruvate kinase/lactate dehydrogenase enzyme coupled assay (reference value: 0.4 +/- 0.1 mM); details: Homo sapiens
[14] = compound: C=C(C)[C@H](CC=C(C)C)C[C@]12C[C@H](CC=C(C)C)C(C)(C)[C@](CC=C(C)C)(C(=O)C(C(=O)c3ccc(O)c(O)c3)=C1O)C2=O; test: as §2; details: Homo sapiens
[15] = compound: CC(C)=CCC/C(C)=C/C[C@@]12C[C@H](CC=C(C)C)C(C)(C)[C@@](CC=C(C)C)(C(=O)C(C(=O)c3ccc(O)c(O)c3)=C1O)C2=O; test: as §2; details: Homo sapiens
[16] = compound: C=C(C)[C@H](CC=C(C)C)C[C@]12C[C@H](CC=C(C)C)C(C)(C)[C@](CC=C(C)C)(C(=O)C(C(=O)c3ccc(O)c(O)c3)=C1O)C2=O; test: Mixed-type inhibition of topoisomerase 2alpha ATPase activity (unknown origin) assessed as apparent Km at 50 uM using salmon sperm DNA as substrate measured every 30 secs for 90 mins in presence of ATP by pyruvate kinase/lactate dehydrogenase enzyme coupled assay (reference value: 0.4 +/- 0.1 mM); details: Homo sapiens
[17] = compound: CC(C)=CCC/C(C)=C/C[C@@]12C[C@H](CC=C(C)C)C(C)(C)[C@@](CC=C(C)C)(C(=O)C(C(=O)c3ccc(O)c(O)c3)=C1O)C2=O; test: Mixed-type inhibition of topoisomerase 2alpha ATPase activity (unknown origin) assessed as apparent Km at 20 uM using salmon sperm DNA as substrate measured every 30 secs for 90 mins in presence of ATP by pyruvate kinase/lactate dehydrogenase enzyme coupled assay (reference value: 0.4 +/- 0.1 mM); details: Homo sapiens
[18] = compound: CC(C)=CCC[C@@]1(C)[C@H](CC=C(C)C)C[C@]2(CC=C(C)C)C(=O)[C@@]1(CC=C(C)C)C(=O)C(C(=O)c1ccc(O)c(O)c1)=C2O; test: (§3) Mixed-type inhibition of topoisomerase 2alpha ATPase activity (unknown origin) assessed as apparent Km at 25 uM using salmon sperm DNA as substrate measured every 30 secs for 90 mins in presence of ATP by pyruvate kinase/lactate dehydrogenase enzyme coupled assay (reference value: 0.4 +/- 0.1 mM); details: Homo sapiens
[19] = compound: C=C(C)[C@H](CC=C(C)C)C[C@]12C[C@H](CC=C(C)C)C(C)(C)[C@](CC=C(C)C)(C(=O)C(C(=O)c3ccc(O)c(O)c3)=C1O)C2=O; test: as §3; details: Homo sapiens
[20] = compound: CC(C)=CCC[C@@]1(C)[C@H](CC=C(C)C)C[C@]2(CC=C(C)C)C(=O)[C@@]1(CC=C(C)C)C(=O)C(C(=O)c1ccc(O)c(O)c1)=C2O; test: (§4) Mixed-type inhibition of topoisomerase 2alpha ATPase activity (unknown origin) assessed as apparent Km at 5 uM using salmon sperm DNA as substrate measured every 30 secs for 90 mins in presence of ATP by pyruvate kinase/lactate dehydrogenase enzyme coupled assay (reference value: 0.4 +/- 0.1 mM); details: Homo sapiens
[21] = compound: CC(C)=CCC/C(C)=C/C[C@@]12C[C@H](CC=C(C)C)C(C)(C)[C@@](CC=C(C)C)(C(=O)C(C(=O)c3ccc(O)c(O)c3)=C1O)C2=O; test: as §4; details: Homo sapiens

T2 sequence (Q02880 whole entry): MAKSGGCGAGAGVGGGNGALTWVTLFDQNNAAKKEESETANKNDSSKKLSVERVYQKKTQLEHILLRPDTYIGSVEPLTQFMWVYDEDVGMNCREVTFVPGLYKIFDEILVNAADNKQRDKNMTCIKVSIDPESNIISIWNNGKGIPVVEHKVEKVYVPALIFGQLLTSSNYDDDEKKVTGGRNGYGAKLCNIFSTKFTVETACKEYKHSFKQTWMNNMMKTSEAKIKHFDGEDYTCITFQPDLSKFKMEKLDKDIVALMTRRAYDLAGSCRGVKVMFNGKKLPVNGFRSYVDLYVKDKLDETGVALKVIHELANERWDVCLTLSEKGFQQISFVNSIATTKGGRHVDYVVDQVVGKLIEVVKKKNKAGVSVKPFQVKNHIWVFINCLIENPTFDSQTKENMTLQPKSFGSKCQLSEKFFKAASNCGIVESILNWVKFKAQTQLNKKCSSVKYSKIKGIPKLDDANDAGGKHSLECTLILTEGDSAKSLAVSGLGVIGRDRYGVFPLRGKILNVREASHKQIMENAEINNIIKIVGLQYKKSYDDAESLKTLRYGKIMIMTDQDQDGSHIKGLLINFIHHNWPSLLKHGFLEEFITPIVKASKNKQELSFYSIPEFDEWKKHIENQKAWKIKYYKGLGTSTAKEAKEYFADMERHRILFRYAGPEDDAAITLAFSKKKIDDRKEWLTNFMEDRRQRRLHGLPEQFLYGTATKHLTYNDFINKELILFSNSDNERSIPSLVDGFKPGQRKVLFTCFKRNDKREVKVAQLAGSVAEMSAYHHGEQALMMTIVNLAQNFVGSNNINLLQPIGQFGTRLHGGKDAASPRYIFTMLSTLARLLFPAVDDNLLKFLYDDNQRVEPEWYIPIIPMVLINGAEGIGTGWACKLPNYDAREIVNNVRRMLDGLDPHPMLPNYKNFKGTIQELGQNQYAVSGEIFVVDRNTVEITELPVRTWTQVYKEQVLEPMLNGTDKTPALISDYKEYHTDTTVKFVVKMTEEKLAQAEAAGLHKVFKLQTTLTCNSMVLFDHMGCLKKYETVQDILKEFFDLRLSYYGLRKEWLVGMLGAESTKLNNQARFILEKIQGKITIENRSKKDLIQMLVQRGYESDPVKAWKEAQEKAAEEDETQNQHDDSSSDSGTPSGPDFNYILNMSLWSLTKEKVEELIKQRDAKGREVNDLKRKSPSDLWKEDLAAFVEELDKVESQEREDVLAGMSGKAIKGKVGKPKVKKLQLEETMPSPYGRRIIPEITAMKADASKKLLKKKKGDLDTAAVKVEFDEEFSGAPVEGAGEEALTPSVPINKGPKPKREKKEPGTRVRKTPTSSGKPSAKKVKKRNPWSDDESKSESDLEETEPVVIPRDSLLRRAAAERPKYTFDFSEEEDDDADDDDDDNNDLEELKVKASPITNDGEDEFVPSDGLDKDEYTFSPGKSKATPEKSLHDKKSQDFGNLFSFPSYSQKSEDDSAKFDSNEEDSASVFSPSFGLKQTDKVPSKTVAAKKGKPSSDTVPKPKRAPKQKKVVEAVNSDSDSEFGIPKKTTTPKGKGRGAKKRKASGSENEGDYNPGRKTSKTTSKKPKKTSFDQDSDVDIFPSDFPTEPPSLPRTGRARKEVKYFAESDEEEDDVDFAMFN

Row | Molecule | inhibition [1] | inhibition [2] | inhibition [4] | inhibition [5] | other results
1 | CC(C)=CCC[C@@]1(C)[C@H](CC=C(C)C)C[C@]2(CC=C(C)C)C(=O)[C@@]1(CC=C(C)C)C(=O)C(C(=O)c1ccc(O)c(O)c1)=C2O | Active | Active | Active | Active | Vmax(app) [3]: 93 mM/min
2 | CC(C)=CCC[C@@]1(C)[C@H](CC=C(C)C)C[C@@]2(CC=C(C)C)C(=O)c3c(oc4cc(O)c(O)cc4c3=O)[C@]1(CC=C(C)C)C2=O | Active | Active | Active | Active | 
3 | CC(C)=CCC/C(C)=C/C[C@@]12C[C@H](CC=C(C)C)C(C)(C)[C@@](CC=C(C)C)(C(=O)C(C(=O)c3ccc(O)c(O)c3)=C1O)C2=O | Active | Active | Active | Active | Vmax(app) [6]: 53.6 mM/min
4 | CC(C)=CCC/C(C)=C/C[C@]12C[C@H](CC=C(C)C)C(C)(C)[C@](CC=C(C)C)(C1=O)c1oc3cc(O)c(O)cc3c(=O)c1C2=O | Active |  |  | Active | inhibition [7]: inactive
5 | C=C(C)[C@H](CC=C(C)C)C[C@]12C[C@H](CC=C(C)C)C(C)(C)[C@](CC=C(C)C)(C(=O)C(C(=O)c3ccc(O)c(O)c3)=C1O)C2=O |  |  |  |  | Activity [8]: inactive; Vmax(app) [9]: 84.7 mM/min; Activity [10]: inactive; IC50 [11]: 101 µM; IC50 [12]: 101 µM; Vmax(app) [3]: 94 mM/min
6 | CC(C)=CCC[C@@]1(C)[C@H](CC=C(C)C)C[C@]2(CC=C(C)C)C(=O)[C@@]1(CC=C(C)C)C(=O)c1c2oc2cc(O)c(O)cc2c1=O | Active | Active | Active | Active | 
7 | B1 |  |  |  |  | Km [13]: 800 µM; Km [14]: 300 µM; Km [15]: 900 µM; Km [16]: 800 µM; Km [17]: 1600 µM; Km [18]: 1000 µM; Km [19]: 700 µM; Km [20]: 600 µM; Km [21]: 600 µM
